The NIST ThermoML archive (doi:10.1021/acs.jced.6b00026)
± gives the expanded uncertainty stated by the source.

Assay: xn = mol fraction of the nth substance listed
Conditions: Fluid (supercritical or subcritical phases), Buoyancy - hydrostatic balance with magnetic suspension - one sinker

CCCCCCCCCCC [undecane] + O=C=O
Conditions	mass density [kg/m3]
313.18 K, 8001 kPa, x2 = 0.6797	776.08 ± 0.38
313.18 K, 13999 kPa, x2 = 0.2483	745.92 ± 0.38
313.18 K, 16002 kPa, x2 = 0.6797	808.24 ± 0.39
313.18 K, 18070 kPa, x2 = 0.8874	825.37 ± 0.38
313.18 K, 18977 kPa, x2 = 0.2483	749.97 ± 0.39
313.19 K, 16008 kPa, x2 = 0.2483	747.58 ± 0.38
313.19 K, 19014 kPa, x2 = 0.6797	817.41 ± 0.4
313.2 K, 10002 kPa, x2 = 0.6797	785.54 ± 0.37
313.2 K, 12013 kPa, x2 = 0.2483	744.22 ± 0.38
313.21 K, 8004 kPa, x2 = 0.2483	740.68 ± 0.38
313.21 K, 10007 kPa, x2 = 0.2483	742.45 ± 0.38
313.21 K, 12003 kPa, x2 = 0.6797	793.85 ± 0.38
313.21 K, 13997 kPa, x2 = 0.6797	801.3 ± 0.38
313.21 K, 18002 kPa, x2 = 0.2483	749.16 ± 0.39
313.22 K, 19000 kPa, x2 = 0.4641	772.52 ± 0.4
313.23 K, 16004 kPa, x2 = 0.4641	769.05 ± 0.4
313.23 K, 17996 kPa, x2 = 0.4641	771.37 ± 0.4
313.24 K, 10003 kPa, x2 = 0.4641	761.59 ± 0.38
313.24 K, 12000 kPa, x2 = 0.4641	764.15 ± 0.39
313.24 K, 18003 kPa, x2 = 0.6797	814.33 ± 0.39
313.25 K, 7997 kPa, x2 = 0.4641	758.91 ± 0.38
313.26 K, 10039 kPa, x2 = 0.8874	773.99 ± 0.38
313.26 K, 11990 kPa, x2 = 0.8874	789.91 ± 0.38
313.26 K, 14074 kPa, x2 = 0.8874	803.72 ± 0.38
313.27 K, 16066 kPa, x2 = 0.8874	815 ± 0.38
313.27 K, 19015 kPa, x2 = 0.8874	829.45 ± 0.38
313.29 K, 14002 kPa, x2 = 0.4641	766.59 ± 0.39
323.11 K, 18008 kPa, x2 = 0.6797	792.77 ± 0.38
323.14 K, 11997 kPa, x2 = 0.2483	736.47 ± 0.38
323.15 K, 16006 kPa, x2 = 0.4641	758.48 ± 0.39
323.17 K, 7997 kPa, x2 = 0.4641	747.66 ± 0.38
323.17 K, 14005 kPa, x2 = 0.4641	755.92 ± 0.38
323.17 K, 19002 kPa, x2 = 0.6797	795.98 ± 0.38
323.19 K, 9992 kPa, x2 = 0.6797	757.97 ± 0.38
323.2 K, 9999 kPa, x2 = 0.2483	734.59 ± 0.38
323.2 K, 11998 kPa, x2 = 0.6797	768.5 ± 0.37
323.2 K, 16011 kPa, x2 = 0.2483	739.99 ± 0.38
323.2 K, 18000 kPa, x2 = 0.2483	741.72 ± 0.38
323.23 K, 14011 kPa, x2 = 0.2483	738.22 ± 0.38
323.23 K, 19001 kPa, x2 = 0.2483	742.54 ± 0.38
323.25 K, 16042 kPa, x2 = 0.6797	785.42 ± 0.38
323.25 K, 19040 kPa, x2 = 0.8874	798.97 ± 0.38
323.26 K, 10008 kPa, x2 = 0.4641	750.42 ± 0.37
323.26 K, 12004 kPa, x2 = 0.4641	753.18 ± 0.38
323.26 K, 19006 kPa, x2 = 0.4641	762.09 ± 0.39
323.27 K, 8000 kPa, x2 = 0.2483	732.65 ± 0.38
323.27 K, 18003 kPa, x2 = 0.4641	760.86 ± 0.39
323.3 K, 14004 kPa, x2 = 0.6797	777.17 ± 0.37
323.31 K, 13971 kPa, x2 = 0.8874	764.29 ± 0.39
323.31 K, 18051 kPa, x2 = 0.8874	793.06 ± 0.38
323.32 K, 11984 kPa, x2 = 0.8874	745.06 ± 0.4
323.32 K, 16015 kPa, x2 = 0.8874	779.89 ± 0.38
333.05 K, 15991 kPa, x2 = 0.2483	732.43 ± 0.38
333.06 K, 8008 kPa, x2 = 0.2483	724.69 ± 0.38
333.06 K, 18013 kPa, x2 = 0.2483	734.27 ± 0.38
333.07 K, 18027 kPa, x2 = 0.6797	770.02 ± 0.37
333.07 K, 19007 kPa, x2 = 0.2483	735.15 ± 0.38
333.09 K, 18042 kPa, x2 = 0.8874	758.98 ± 0.38
333.11 K, 12010 kPa, x2 = 0.8874	701.45 ± 0.44
333.14 K, 10000 kPa, x2 = 0.2483	726.64 ± 0.38
333.14 K, 11987 kPa, x2 = 0.6797	745.9 ± 0.38
333.14 K, 18003 kPa, x2 = 0.4641	751.23 ± 0.38
333.14 K, 19000 kPa, x2 = 0.6797	773.23 ± 0.37
333.16 K, 10004 kPa, x2 = 0.4641	739.87 ± 0.38
333.16 K, 11998 kPa, x2 = 0.4641	742.85 ± 0.37
333.16 K, 12018 kPa, x2 = 0.2483	728.6 ± 0.38
333.16 K, 16006 kPa, x2 = 0.4641	748.54 ± 0.38
333.16 K, 19039 kPa, x2 = 0.8874	765.91 ± 0.38
333.17 K, 8004 kPa, x2 = 0.4641	736.7 ± 0.37
333.17 K, 13998 kPa, x2 = 0.6797	754.83 ± 0.38
333.17 K, 14005 kPa, x2 = 0.8874	721.01 ± 0.41
333.17 K, 14013 kPa, x2 = 0.2483	730.5 ± 0.38
333.19 K, 13997 kPa, x2 = 0.4641	745.71 ± 0.38
333.19 K, 16015 kPa, x2 = 0.8874	741.91 ± 0.39
333.21 K, 19000 kPa, x2 = 0.4641	752.46 ± 0.38
333.23 K, 16000 kPa, x2 = 0.6797	762.53 ± 0.37
343.19 K, 12000 kPa, x2 = 0.2483	720.79 ± 0.37
343.2 K, 14004 kPa, x2 = 0.2483	722.81 ± 0.38
343.2 K, 17005 kPa, x2 = 0.2483	725.76 ± 0.38
343.21 K, 11985 kPa, x2 = 0.6797	729.1 ± 0.37
343.24 K, 10010 kPa, x2 = 0.2483	718.69 ± 0.37
343.25 K, 13002 kPa, x2 = 0.6797	731.82 ± 0.37
343.25 K, 16001 kPa, x2 = 0.4641	738.42 ± 0.37
343.26 K, 14997 kPa, x2 = 0.2483	723.76 ± 0.38
343.26 K, 17011 kPa, x2 = 0.4641	739.9 ± 0.37
343.27 K, 13999 kPa, x2 = 0.6797	736.08 ± 0.4
343.27 K, 14997 kPa, x2 = 0.4641	736.9 ± 0.37
343.27 K, 17005 kPa, x2 = 0.6797	747.33 ± 0.38
343.28 K, 14027 kPa, x2 = 0.8874	673.56 ± 0.49
343.28 K, 14995 kPa, x2 = 0.6797	739.94 ± 0.39
343.28 K, 15997 kPa, x2 = 0.6797	743.79 ± 0.38
343.28 K, 18018 kPa, x2 = 0.6797	750.83 ± 0.37
343.3 K, 11002 kPa, x2 = 0.2483	719.69 ± 0.37
343.3 K, 11003 kPa, x2 = 0.4641	730.57 ± 0.37
343.3 K, 12002 kPa, x2 = 0.4641	732.18 ± 0.37
343.3 K, 16007 kPa, x2 = 0.2483	724.72 ± 0.38
343.3 K, 18033 kPa, x2 = 0.8874	723.56 ± 0.4
343.31 K, 8003 kPa, x2 = 0.4641	725.39 ± 0.37
343.31 K, 13003 kPa, x2 = 0.4641	733.77 ± 0.37
343.32 K, 7999 kPa, x2 = 0.2483	716.46 ± 0.37
343.32 K, 17016 kPa, x2 = 0.8874	713.66 ± 0.41
343.32 K, 19002 kPa, x2 = 0.4641	742.71 ± 0.38
343.34 K, 9998 kPa, x2 = 0.4641	728.83 ± 0.37
343.34 K, 16020 kPa, x2 = 0.8874	702.38 ± 0.43
343.34 K, 19012 kPa, x2 = 0.2483	727.57 ± 0.38
343.35 K, 15016 kPa, x2 = 0.8874	689.29 ± 0.46
343.35 K, 17999 kPa, x2 = 0.4641	741.25 ± 0.37
343.37 K, 19004 kPa, x2 = 0.8874	731.75 ± 0.39
343.37 K, 19021 kPa, x2 = 0.6797	753.8 ± 0.37
343.39 K, 13010 kPa, x2 = 0.2483	721.68 ± 0.37
343.4 K, 18008 kPa, x2 = 0.2483	726.58 ± 0.38
343.41 K, 14002 kPa, x2 = 0.4641	735.22 ± 0.37
353.08 K, 11003 kPa, x2 = 0.2483	711.86 ± 0.37
353.09 K, 11995 kPa, x2 = 0.4641	721.32 ± 0.37
353.12 K, 10003 kPa, x2 = 0.2483	710.71 ± 0.37
353.13 K, 13017 kPa, x2 = 0.2483	714.01 ± 0.37
353.13 K, 17994 kPa, x2 = 0.4641	731.12 ± 0.37
353.14 K, 16002 kPa, x2 = 0.2483	717.14 ± 0.37
353.19 K, 14997 kPa, x2 = 0.4641	726.33 ± 0.37
353.23 K, 14005 kPa, x2 = 0.4641	724.68 ± 0.37
353.31 K, 8017 kPa, x2 = 0.4641	712.03 ± 0.37
353.31 K, 16999 kPa, x2 = 0.2483	718.15 ± 0.37
353.33 K, 9996 kPa, x2 = 0.4641	717.59 ± 0.37
353.33 K, 18011 kPa, x2 = 0.2483	719.15 ± 0.37
353.34 K, 14014 kPa, x2 = 0.2483	715.02 ± 0.37
353.34 K, 16078 kPa, x2 = 0.6797	710.53 ± 0.42
353.35 K, 14995 kPa, x2 = 0.2483	716.05 ± 0.37
353.38 K, 19001 kPa, x2 = 0.4641	732.5 ± 0.37
353.39 K, 13004 kPa, x2 = 0.4641	722.88 ± 0.37
353.4 K, 7998 kPa, x2 = 0.2483	708.29 ± 0.37
353.4 K, 16003 kPa, x2 = 0.4641	727.85 ± 0.37
353.4 K, 19017 kPa, x2 = 0.2483	720.08 ± 0.38
353.41 K, 11004 kPa, x2 = 0.4641	719.34 ± 0.37
353.42 K, 17964 kPa, x2 = 0.6797	722.19 ± 0.39
353.43 K, 12003 kPa, x2 = 0.2483	712.78 ± 0.37
353.43 K, 15953 kPa, x2 = 0.8874	651.24 ± 0.49
353.43 K, 18953 kPa, x2 = 0.8874	692.79 ± 0.42
353.43 K, 19052 kPa, x2 = 0.8874	691.56 ± 0.41
353.44 K, 15006 kPa, x2 = 0.6797	702.5 ± 0.39
353.44 K, 16998 kPa, x2 = 0.4641	729.38 ± 0.37
353.44 K, 17006 kPa, x2 = 0.6797	716.04 ± 0.41
353.44 K, 19016 kPa, x2 = 0.6797	727.96 ± 0.39
353.45 K, 17976 kPa, x2 = 0.8874	681.1 ± 0.43
353.46 K, 16003 kPa, x2 = 0.8874	649.3 ± 0.49
353.46 K, 17018 kPa, x2 = 0.8874	665.72 ± 0.88
353.52 K, 17018 kPa, x2 = 0.8874	668.1 ± 0.88
353.52 K, 18000 kPa, x2 = 0.8874	678.79 ± 0.43
